# Data: patent publication US20030194784A1, “DNA encoding methymycin and pikromycin” (priority 2001, published 2003)
# B1: A. eutrophus PHA synthase (phbC gene product), produced in insect cells with a baculovirus vector (enzyme)
# chain: AAASTQEGKSQPFKVTPGPFDPATWLEWSRQWQGTEGNGHAAASGIPGLDALAGVKIAPAQLGDIQQRYMKDFSALWQAMAEGKAEATGPLHDRRFAGDAWRTNLPYRFAAAFYLLNARALTELADAVEADAKTRQRIRFAISQWVDAMSPANFLATNPEAQRLLIESGGESLRAGVRNMMEDLTRGKISQTDESAFEVGRNVAVTEGAVVFENEYFQLLQYKPLTDKVHARPLLMVPPCINKYYILDLQPESSLVRHVVEQGHTVFLVSWRNPDASMAGSTWDDYIEHAAIRAIEVARDISGQDKINVLGFCVGGTIVSTALAVLAARGEHPAASVTLLTTLLDFADTGILDVFVDEGHVQLREATLGGGAGAPCALLRGLELANTFSFLRPNDLVWNYVVDNYLKGNTPVPFDLLFWNGDATNLPGPWYCWYLRHTYLQNELKVPGKLTVCGVPVDLASIDVPTYIYGSREDHIVPWTAAYASTALLANKLRFVLGASGHIAGVINPPAKNKRSHWTNDALPESPQQWLAGAIEHHGSWWPDWTAWLAGQAGAKRAAPANYGNARYRAIEPAPGRYVKAKA
# notes: The 64 kDa band; On the blots it was denatured (SDS-PAGE); The N-terminus is heterogeneous (starts at A7 or S10); also called PHB synthase; intact PHB synthase (band a)
# What was measured:
# [1] = target: A. eutrophus PHA synthase (Cupriavidus necator, UniProt P23608); conditions: read-out: apparent Km value (substrate concentration at half-optimal velocity); enzyme concentration constant at 0.95 mg/ml; 40 or 200 μl assay volumes; estimated from FIG. 10
# [2] = tested on: Streptococcus pyogenes; assay: Antibiotic activity by filter paper disc on agar plates; format: cell-based; conditions: for inhibition zone around disc (antibiotic activity against Streptococcus pyogenes): 20 μL of 1.6 mM sample in MeOH on sterilized filter paper disc, Mueller-Hinton agar plates, overnight at 37° C.; for activity against Streptococcus pyogenes: purified compounds, S. pyogenes grown on Mueller-Hinton agar plates
# Experimental: The antibiotic activity of a compound of formula (13) and (14) against Streptococcus pyogenes was examined by separately applying 20 μL of each sample (1.6 mM in MeOH) to sterilized filter paper discs which were placed onto the surface of S. pyogenes grown on Mueller-Hinton agar plates (Mangahas, 1996).
# [3] = Storage stability of purified PHA synthase (activity remaining); format: physicochemical
# Description: PHA synthase purified from insect cells appears to be relatively stable.
# [4] = target: the molecule itself; assay: size exclusion chromatography, native MW (about 100-160 kDa and about 50-80 kDa forms)
Molecule,inhibition zone around disc (antibiotic activity against Streptococcus pyogenes) [2],activity against Streptococcus pyogenes [2],further results
3-hydroxybutyrate CoA [HBCoA],–,–,Km [1]: 2500 µM
"CC[C@H]1OC(=O)[C@H](C)[C@@H](O[C@@H]2O[C@H](C)C[C@H](N(C)C)[C@H]2O)[C@@H](C)C[C@@H](C)C(=O)/C=C/[C@]1(C)O [compound of formula (1), methymycin]",clearly visible inhibition zones,clearly visible inhibition zones,–
"C[C@@H]1C[C@H](N(C)C)[C@@H](O)[C@H](O[C@H]2[C@@H](C)C[C@@H](C)C(=O)/C=C/[C@@H](C)[C@@H]([C@@H](C)O)OC(=O)[C@@H]2C)O1 [compound of formula (2), neomethymycin]",clearly visible inhibition zones,clearly visible inhibition zones,–
"CCC1OC(=O)C(C)C(OC2OC(C)CC(N(C)C)C2O[C@@H]2O[C@H](CO)[C@@H](O)[C@H](O)[C@H]2O)C(C)CC(C)C(=O)C=CC1(C)O (stereo partly drawn) [compound of formula (13), C-2′β-glucosylated methymycin]",no such clearings were discernible,–,–
B1,–,–,synthase activity remained after storage ([3]; after 7 weeks stored at −20° C. in the presence of 50% glycerol): approximately 75%; synthase activity remained after storage ([3]; after 7 weeks stored in liquid N2): approximately 50%; binding result [4]: binds
